The IC50 is the concentration that gives 50% inhibition. Lower therefore signals greater potency in that assay.

Consider eight molecules from US8283353B2, “Fused ring compound and use thereof” (Takeda Pharmaceutical Company Limited, priority 2009, dated 2012).

For one test, the target named is T1, human AT1 receptor (Homo sapiens, UniProt P30556).
T1 construct: expressed in transfected cells; membrane fraction
T1 sequence (P30556 1-359): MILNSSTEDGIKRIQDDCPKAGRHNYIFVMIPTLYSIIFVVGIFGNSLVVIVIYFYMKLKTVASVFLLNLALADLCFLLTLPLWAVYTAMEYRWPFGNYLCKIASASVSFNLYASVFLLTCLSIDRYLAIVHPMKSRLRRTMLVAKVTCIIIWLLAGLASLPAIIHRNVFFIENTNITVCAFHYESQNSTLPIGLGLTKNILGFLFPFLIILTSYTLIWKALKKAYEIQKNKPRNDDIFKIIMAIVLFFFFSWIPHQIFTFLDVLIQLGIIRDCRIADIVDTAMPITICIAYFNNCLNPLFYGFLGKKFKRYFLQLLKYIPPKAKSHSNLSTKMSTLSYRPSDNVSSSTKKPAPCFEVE
Briefly: AT1 receptor antagonistic activity: [125I]-angiotensin II binding assay on human AT1 receptor-expressing CHO-K1 cellular membrane fraction. Conditions: 22.5 pM [125I]-angiotensin II, 1 hr room temperature. The essentials:
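Competition binding used radiolabelled angiotensin II on stably transfected CHO-K1 membrane fractions in Tris pH 7.4/MgCl2 buffer, optionally containing 0.3 mg/mL fatty acid-free BSA, 1 hr at room temperature. Filtration onto GF/C separated bound tracer, and nonspecific binding was measured with candesartan.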

Another test concerns the target T2, human PPARγ (Homo sapiens, UniProt P37231).
T2 construct: expressed in transfected cells
T2 sequence (P37231 1-477 isoform P37231-2): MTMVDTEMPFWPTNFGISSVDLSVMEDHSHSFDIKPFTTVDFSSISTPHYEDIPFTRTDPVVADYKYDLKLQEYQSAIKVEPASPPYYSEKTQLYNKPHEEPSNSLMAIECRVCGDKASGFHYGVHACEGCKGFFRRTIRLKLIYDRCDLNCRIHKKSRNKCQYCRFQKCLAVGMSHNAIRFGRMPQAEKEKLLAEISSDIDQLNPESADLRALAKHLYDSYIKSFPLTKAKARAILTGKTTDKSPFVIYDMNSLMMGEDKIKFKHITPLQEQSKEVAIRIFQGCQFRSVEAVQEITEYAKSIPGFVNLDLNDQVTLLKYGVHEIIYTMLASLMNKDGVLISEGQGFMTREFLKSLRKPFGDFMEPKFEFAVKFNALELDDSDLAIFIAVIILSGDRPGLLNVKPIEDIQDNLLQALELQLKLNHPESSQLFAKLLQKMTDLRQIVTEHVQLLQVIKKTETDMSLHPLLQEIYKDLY
T2 sequence (P19793 1-462 partner): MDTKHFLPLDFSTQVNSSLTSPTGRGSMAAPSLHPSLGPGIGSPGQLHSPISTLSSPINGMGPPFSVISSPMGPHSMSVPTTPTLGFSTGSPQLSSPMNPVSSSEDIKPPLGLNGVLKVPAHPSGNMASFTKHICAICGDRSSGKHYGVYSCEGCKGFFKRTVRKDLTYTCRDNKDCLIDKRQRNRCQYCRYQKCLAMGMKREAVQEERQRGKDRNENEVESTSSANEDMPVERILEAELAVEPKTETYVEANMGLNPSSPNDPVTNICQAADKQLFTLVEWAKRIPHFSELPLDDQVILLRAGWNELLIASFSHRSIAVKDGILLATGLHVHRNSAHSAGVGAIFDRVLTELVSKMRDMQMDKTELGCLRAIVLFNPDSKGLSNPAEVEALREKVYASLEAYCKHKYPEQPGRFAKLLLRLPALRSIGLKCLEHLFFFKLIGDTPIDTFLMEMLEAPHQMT
Briefly: PPARγ agonistic activity: luciferase reporter assay in PPARγ:RXRα:4ERPP/CHO-K1 cells. The format is cell-based. The settings on record: CHO-K1, test compound 10^−6 M; luciferase activity of control compound X (1 μM) = 100%, non-administration group = 0%. The method, boiled down:
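Activity is expressed relative to untreated cells (0%) and 1 μM reference compound X (100%), from luciferase luminescence. Reporter line: PPARγ:RXRα:4ERPP/CHO-K1, exposed to compound for one day at 37 °C in F12 medium containing 0.1% fatty-acid-free BSA.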
In general terms: A reporter such as luciferase makes a cellular process visible.

For the molecule `CCCc1c(Cc2ccc(-c3ccccc3-c3noc(=O)[nH]3)cc2)c(=O)n(CC(C)(C)C)c2ncnn12` [Example 9, 4-(2,2-dimethylpropyl)-6-{[2′-(5-oxo-4,5-dihydro-1,2,4-oxadiazol-3-yl)biphenyl-4-yl]methyl}-7-propyl[1,2,4]triazolo[1,5-a]pyrimidin-5(4H)-one], the IC50 on human AT1 receptor is 2.1 nM. Also, the activation at 1 µM on human PPARγ was found to be 17%.

In turn, `CCCc1c(Cc2ccc(-c3ccccc3-c3noc(=O)[nH]3)cc2)c(=O)n(C/C(=N\OCC)C(F)(F)F)c2nc(C)nn12` [Example 107, 4-[(2E)-2-(ethoxyimino)-3,3,3-trifluoropropyl]-2-methyl-6-{[2′-(5-oxo-4,5-dihydro-1,2,4-oxadiazol-3-yl)biphenyl-4-yl]methyl}-7-propyl[1,2,4]triazolo[1,5-a]pyrimidin-5(4H)-one] registered an IC50 on human AT1 receptor of 1.9 nM. For the same molecule, on human PPARγ, the activation at 1 µM worked out at 16%.

As to `CCCc1c(Cc2ccc(-c3ccccc3-c3noc(=O)[nH]3)cc2)c(=O)n([C@H]2CC[C@H](OC(C)C#N)CC2)c2ncnn12` (stereo partly drawn) [Example 244, 2-({trans-4-[5-oxo-6-{[2′-(5-oxo-4,5-dihydro-1,2,4-oxadiazol-3-yl)biphenyl-4-yl]methyl}-7-propyl[1,2,4]triazolo[1,5-a]pyrimidin-4(5H)-yl]cyclohexyl}oxy)propanenitrile], the IC50 on human AT1 receptor came out at 2.3 nM. Besides, the activation at 1 µM at human PPARγ amounted to 29%.

`CCCc1c(Cc2ccc(-c3ccccc3-c3noc(=O)[nH]3)cc2F)c(=O)n([C@H]2CC[C@H](OCC(C)(C)O)CC2)c2ccnn12` [Example 435, 6-{[3-fluoro-2′-(5-oxo-4,5-dihydro-1,2,4-oxadiazol-3-yl)biphenyl-4-yl]methyl}-4-[trans-4-(2-hydroxy-2-methylpropoxy)cyclohexyl]-7-propylpyrazolo[1,5-a]pyrimidin-5(4H)-one]: at human AT1 receptor, the IC50 was 1.7 nM. For the same molecule, the activation at 1 µM at human PPARγ was 30%.

For the molecule `CCCc1c(Cc2ccc(-c3ccccc3-c3noc(=O)[nH]3)cc2)c(=O)n([C@H]2CC[C@](O)(COC)CC2)c2ncnn12` [Example 297, 4-[cis-4-hydroxy-4-(methoxymethyl)cyclohexyl]-6-{[2′-(5-oxo-4,5-dihydro-1,2,4-oxadiazol-3-yl)biphenyl-4-yl]methyl}-7-propyl[1,2,4]triazolo[1,5-a]pyrimidin-5(4H)-one], the IC50 at human AT1 receptor was determined as 2.8 nM. At human PPARγ, the activation at 1 µM worked out at 53%.

For `CCCc1c(Cc2ccc(-c3ccccc3-c3noc(=O)[nH]3)cc2F)c(=O)n([C@H]2CC[C@H](OC(C)C3(O)CCC3)CC2)c2ncnn12` (stereo partly drawn) [Example 371, 6-{[3-fluoro-2′-(5-oxo-4,5-dihydro-1,2,4-oxadiazol-3-yl)biphenyl-4-yl]methyl}-4-{trans-4-[1-(1-hydroxycyclobutyl)ethoxy]cyclohexyl}-7-propyl[1,2,4]triazolo[1,5-a]pyrimidin-5(4H)-one], the IC50 at human AT1 receptor came out at 2.1 nM. The molecule also yielded an activation at 1 µM at human PPARγ of 33%.

As for `CCCc1c(Cc2ccc(-c3ccccc3-c3noc(=O)[nH]3)cc2)c(=O)n([C@H]2CC[C@@]3(CC2)CC(C)=NO3)c2ncnn12` [Example 205, 4-[(5S,8S)-3-methyl-1-oxa-2-azaspiro[4.5]dec-2-en-8-yl]-6-{[2′-(5-oxo-4,5-dihydro-1,2,4-oxadiazol-3-yl)biphenyl-4-yl]methyl}-7-propyl[1,2,4]triazolo[1,5-a]pyrimidin-5(4H)-one], the IC50 on human AT1 receptor is 2.7 nM. Besides, at human PPARγ, the activation at 1 µM is 27%.

As for `CCCc1c(Cc2ccc(-c3ccccc3-c3noc(=O)[nH]3)cc2)c(=O)n([C@H]2CC[C@]3(CCCO3)CC2)c2ncnn12` [Example 150, 4-[(5S,8S)-1-oxaspiro[4.5]dec-8-yl]-6-{[2′-(5-oxo-4,5-dihydro-1,2,4-oxadiazol-3-yl)biphenyl-4-yl]methyl}-7-propyl[1,2,4]triazolo[1,5-a]pyrimidin-5(4H)-one], at human AT1 receptor, the IC50 turned out to be 1.4 nM. In addition, the activation at 1 µM at human PPARγ stood at 58%.
